According to patent US7846735B2, “Compositions and methods for lipoprotein uptake assays” (General Electric Company, priority 2006, dated 2010):

Experiments:
[1] = pH dependence of dye fluorescence; type: physicochemical
From the text: The assays employ a pH-sensing cyanine dye, which is minimally fluorescent at neutral pH outside the cell, but highly fluorescent in the acidic environment (pKa ˜7.3; excitation peak 650 nm/emission peak 670 nm). In most instances, the lipoproteins or modified lipoproteins are taken up by cell-surface receptors through the process of receptor-mediated endocytosis. Once internalized, lipoproteins are transported to highly acidic vesicles. When labeled with CypHer5E dye, lipoproteins are minimally fluorescent at neutral pH outside the cell, but highly fluorescent in the acidic environment of the uptake vesicle. This translates into high signal-to-noise ratio compared to traditional dyes that are equally fluorescent inside or outside the cell. Additionally, the disclosed methods eliminate washing steps required for removal of excess of labeled lipoprotein in the media at the end of the protocol. […]
CypHer5E dye is 3 to 20 times more fluorescent in the acidic environment of the intracellular vesicles than at neutral pH outside the cell (pKa ˜7.3; excitation peak 650 nm/emission peak 670 nm). CypHer5E dye fluorescence is enhanced by the acidic conditions of lipoprotein-containing intracellular vesicles after receptor-mediated lipoprotein after the CypHer5E-AcLDL is internalized.

[2] = biological target: T1, scavenger receptor A (SR-A, CD204) (Mus musculus, UniProt P30204); test: Inhibition of CypHer5E-AcLDL uptake by known SR-A ligands; type: cell-based; details: RAW264.7 mouse macrophages, FIG. 7
T1 construct: endogenous in cells; host or cells: RAW264.7 mouse macrophages
T1 sequence (P30204 1-458): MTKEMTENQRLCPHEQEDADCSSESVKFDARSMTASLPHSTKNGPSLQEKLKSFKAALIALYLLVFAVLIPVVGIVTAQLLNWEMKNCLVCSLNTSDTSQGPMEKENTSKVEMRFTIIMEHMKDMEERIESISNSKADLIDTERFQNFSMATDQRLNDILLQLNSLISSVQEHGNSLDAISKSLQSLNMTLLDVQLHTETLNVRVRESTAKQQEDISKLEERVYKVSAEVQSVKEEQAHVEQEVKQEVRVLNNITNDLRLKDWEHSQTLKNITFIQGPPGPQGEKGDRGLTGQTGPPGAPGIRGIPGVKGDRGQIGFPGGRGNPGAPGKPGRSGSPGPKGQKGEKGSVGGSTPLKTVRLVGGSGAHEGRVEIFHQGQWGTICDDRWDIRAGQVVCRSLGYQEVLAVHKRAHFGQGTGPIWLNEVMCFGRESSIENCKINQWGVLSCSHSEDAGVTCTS
Protocol: RAW264.7 Mouse Macrophages, J774A.1 Mouse Macrophages, U-2 OS Human Osteosarcoma Cells were seeded in standard cell culture flasks and cultured in Dulbecco's Modified Eagle Medium (DMEM) with 10% fetal bovine serum (FBS) until about 70% to about 80% confluent. On the day of the assay, the cells were washed twice with serum-free DMEM, and incubated for 30 minutes in cell culture incubator in DMEM containing 1 μM Cell Tracker Green dye. After staining with Cell Tracker Green dye, cells were washed three times with serum-free DMEM, scraped from tissue culture flask, and resuspended in DMEM with 12.5% Fetal Bovine Lipoprotein Deficient Serum (FBLDS) at 250,000 cells/ml.
80 μl of Cell Tracker Green-labeled cells at 250,000 cells/ml were added to each well of ViewPlate 96-well plate in DMEM with 12.5% Fetal Bovine Lipoprotein Deficient Serum (FBLDS). For inhibitor studies, 10 μl of 10-fold stock of the inhibitor in DMEM containing 10% dimethyl sulfoxide (DMSO) were added to each well. 10 μl of DMEM containing 10% DMSO were added for control wells. Cells were pre-incubated for 30 minutes at 37° C. in a cell culture incubator in the presence of the inhibitor before addition of labeled AcLDL. At the end of pre-incubation period, 10 μl of 100 μg/ml CypHer5E-AcLdL solution were added to each well. The incubation continued for another 2 to 18 hours at 37° C. in cell culture incubator before imaging. The Dil AcLDL complex assay was identical to CypHer5E-AcLDL assay except that Dil AcLDL complex was added to cells in place of CypHer5E-AcLDL conjugate.
Following incubation, images of CypHer5E-AcLDL uptake were acquired on IN Cell Analyzer 1000 or 3000 (GE Healthcare) using a 10× or 20× objective and FITC/Cy5 excitation/emission filters. Analysis was performed using Granularity Analysis and Object Intensity Analysis Modules within IN Cell Analyzer system software suite or using Developer™ Image Analysis software.

## CC1(C)C(/C=C/C=C/C=C2/Nc3ccc(S(=O)(=O)O)cc3C2(C)CCCCCC(=O)O)=[N+](CCCCS(=O)(=O)[O-])c2ccc(S(=O)(=O)O)cc21 (stereo not shown) [CypHer5E, 2-{[1E,3E,5E)-5-(3-methyl-3-(5-carboxypentyl)-5-sulfo-1,3-dihydro-2H-indol-2-ylidene]-1,3-pentadienyl}-3,3-dimethyl-5-sulfo-1-(4-sulfobutyl)-3H-indolium]
[1]
  pKa: ~7.3

## Dextran Sulfate MW 500,000 [Dex SO4]
[2]
  inhibition of pH-sensing cyanine dye conjugate uptake (in words): inhibition

## Polyguanylic acid potassium salt [poly G]
[2]
  inhibition of pH-sensing cyanine dye conjugate uptake (in words): inhibition

## Polyinosinic acid potassium salt [poly I]
[2]
  inhibition of pH-sensing cyanine dye conjugate uptake (in words): inhibition
